Source: patent US12186331B2, “Compositions comprising at least one n-acetylated and at least one fucosylated oligosaccharide for use in the promotion of digestive capacity in infants and young children” (SOCIETE DES PRODUITS NESTLE S.A., priority 2017, dated 2025)
“Also recorded” adds a separate entry of the source.

System: villi in the ileum of IUGR rats
Test: Villi length in the ileum of young rats with intra-uterine growth retardation (IUGR) fed HMO-supplemented diet
Format: in vivo, Sprague-Dawley rats
Conditions: IUGR rat pups, 3 g/kg body weight by gavage d7-d21, 4.5% in diet d22-d57, sacrifice at day 57, compared with IUGR group and other groups
From the text: Three groups of time-mated pregnant Sprague-Dawley female rats were bought from Charles River laboratories. One group was submitted to food restriction of 60% during the last 10 days of gestation and their offspring were cross-fostered to normally fed rats. A second group of pregnant females was normally fed and their offspring cross-fostered among the same group of dams. […] Normal-weight offspring born from unrestricted dams and fed a normal non-supplemented diet; • IUGR group (negative control; n=20): IUGR rats being fed a normal diet after birth; • IUGR rats+HMO (test groups): During the experiment, they were reared by their mothers for 21 days and supplemented with HMOs (2FL, LNnT or the Mix of 2FL and LNnT). At weaning, they were fed a diet supplemented with the same HMOs, see details below. […] All rat pups were fed from birth (d=1) up to 57 days (d=57) based on the following protocol: • d1 to d6: all groups of rats were nursed by dam (mothers' milk only); • d7 to d21: all rats were nursed by dam (mothers' milk only). But in the test groups, 3 g/kg body weight of HMO were also administered by gavage: • 3 g/kg body weight of 2FL, for the IUGR/2FL group; • 3 g/kg body weight of LNnT, for the IUGR/LNnT group; • 3 g/kg body weight of a mix of LNnT and 2FL at a 1:2 weight ratio, for the IUGR/HMOs mix group; • […] to […]: all rats were fed a diet as detailed in Table 2 below. Rats were sacrificed at day 57 after a 6-hr fasting period and samples of the small intestine were collected. The length of the villi was measured on a sample of the ileum. One 1-cm sample from the ileum (1 cm cranial from caecum) was collected and flushed with PBS (Sigma D8537). This section was fixed and processed accordingly for histological and morphometric analysis. Two consecutive 4 μm-thick sections of fixed tissue were stained manually with hematoxylin and eosin to determine villus height. […] Ten randomly selected villi were measured in two different segments to determine the mean villi length.

Molecule | mean villi length in the ileum | mean villi length in the ileum (listed as 2-FL)
CC(=O)N[C@H]1[C@H](O[C@H]2[C@@H](O)[C@@H](CO)O[C@@H](O[C@H]3[C@H](O)[C@@H](O)C(O)O[C@@H]3CO)[C@@H]2O)O[C@H](CO)[C@@H](O[C@@H]2O[C@H](CO)[C@H](O)[C@H](O)[C@H]2O)[C@@H]1O (mixture of isomers) [LNnT, lacto-N-neotetraose] | neither 2FL, nor LNnT achieved a statistically significant effect when used alone; also recorded: no significant difference with the IUGR group | –
2′-fucosyllactose [2FL] | neither 2FL, nor LNnT achieved a statistically significant effect when used alone | no significant difference with the IUGR group
